Test results published in US8815946B2, “Inhibition of proliferation and fibrotic response of activated corneal stromal cells” (University of Pittsburgh—of the Commonwealth System of …, priority 2008, dated 2014).

Columns and labels:
[1] = test system: α-SMA; assay: Immunocytochemical analysis of α-SMA expression, human corneal stromal cells; type: cell-based; details: 10 mM EP
Protocol: FIG. 3. Immunocytochemical analysis of α-SMA expression. Human corneal stromal cells in P2 growing in DMEM/F12 with 10% FBS were subcultured into desired number of 35 mm tissue culture dishes. After 24 hrs of incubation, the media were replaced with DMEM/F12 medium containing 1% FBS and TGF-β1 with or without (control) 10 mM EP and incubated for two and four days (media were changed every 24 hours). The cells were fixed and double stained for α-SMA (green) and phalloidin (red) using an indirect fluorescence technique as described herein.
(§1) For immunocytochemical analyses, the cells were cultured on glass cover slips or tissue culture dishes. Cells were rinsed with phosphate-buffered saline (PBS), fixed with paraformaldehyde-lysine-periodate and permeabilized with PIPES buffer containing 0.2% Triton X-100, as described previously (Guerriero et al., Invest. Opthalmol. Vis. Sci. 2007; 48: 627-635). Fixed and permeabilized cells were reacted with 10% heat-inactivated goat serum in PBS, pH 7.5, for 45 minutes to block the nonspecific binding of the secondary antibody, rinsed with PBS, and then treated with the primary and secondary antibodies as described previously (Guerriero et al. Invest. Opthalmol. Vis. Sci. 2007; 48: 627-635). Primary antibodies included monoclonal rat anti-α smooth muscle actin (SMA) and anti-fibronectin. […]

[2] = test system: fibronectin; assay: Immunocytochemical analysis of fibronectin expression, human stromal cells; type: cell-based; details: human corneal cells treated with TGF-β1
Protocol: FIGS. 6A-6B. Immunocytochemical analysis of fibronectin expression. Normal human stromal cells (FIG. 6A) or rabbit corneal stromal cells (FIG. 6B) in P2 growing in DMEM/F12 with 10% FBS were subcultured into 35 mm tissue culture dishes. After 24 hrs of incubation, the media were replaced with DMEM/F12 medium containing 1% FBS and TGF-β1 with or without (control) 10 mM EP and incubated for four days (media were changed every 24 hours). The cells were fixed and double stained for fibronectin (green) and phalloidin (red) using an indirect fluorescence technique as described herein.
as §1

[3] = test system: CD-45+ leukocytes; assay: Mouse corneal wound model, FACS with pan-leukocyte marker CD-45+; type: in vivo, Mus musculus strain C57
Text: (§2) A mouse model of corneal wound healing and inflammation induced by lipopolysacharide (LPS) was used to test the effect of EP. Khatari et al., Invest. Opthalmol. Vis. Sci. (2002) 43:2278-2284. Briefly, mice (Mus musculus strain C57, age approx. 2 months) were obtained from Charles River Laboratories in accordance with institutional protocols and divided into the following treatment groups (with 3 samples in each group):
(§3) Prior to wounding, all mice were anesthetized with an intraperitoneal injection of 50 mg/kg ketamine with 5 mg/kg xylazine. Topical anesthesia was further achieved with an additional 1 drop of 0.5% proparacaine per eye. Once the animal was sufficiently anesthetized, a corneal wound was constructed in each eye using a sterile 26-gauge needle that penetrated the epithelium and the superficial layers of the stroma. This linear scratch extended from the medial to lateral canthus (FIG. 12). 10 μg of the bacterial super-antigen LPS (Pseudomonas aeruginosa lipopolysaccharide, Sigma) was applied to the wound using a 10 μl pipette and allowed to penetrate the cornea for 5 minutes. Addition of bacterial endotoxin ensured a robust inflammatory response.
(§4) The wound was then washed with phosphate buffered saline (PBS/non-pyrogenic dH2O). […] The delivery and concentration of EP was determined according to Devamanoharan et al. (1999); 200(1-2):103-09. […]

[4] = test system: GR-1 neutrophils; assay: Mouse corneal wound model, FACS with neutrophil marker GR-1; type: in vivo, Mus musculus strain C57; details: day 2 post-wounding
Text: as §2, §3, §4

[5] = test system: Ki67; assay: Ki67 staining of activated rabbit corneal keratocytes; type: cell-based; details: bFGF (40 ng/ml)+HS (5 μg/ml), 15 mM EP, two days
Protocol: FIGS. 18A-18B. Rabbit corneal keratocytes were activated with bFGF (40 ng/ml)+HS (5 μg/ml) without EP (FIG. 18A) or with 15 mM EP (FIG. 18B) and after two days the cells were triple stained with anti-Ki67 antibodies (yellow), phalloidin (red, actin filaments) and DAPI (blue, nucleus).
As described in Example 1, corneal stromal cells were isolated from rabbit corneas and cultured using the same procedures. The keratocytes in serum free media were treated with b-FGF (40 ng/ml)+HS (5 μg/ml) with or without 15 mM EP or 1, 2.5 or 5 mM following EP derivatives: 2-oxopropionic acid 3-methoxyphenyl ester, 2-oxopropionic acid 2-ethoxyethyl ester, 2-oxopropionic acid 2-chloroethyl ester, 2-oxopropionic acid isopropyl ester, 2-oxopropionic acid butyl ester, 2-oxopropionic acid p-tolyl ester, 2-oxopropionic acid tert-butyl ester. Two days following the treatments, the cells were fixed and stained for Ki67 (a nuclear antigen expressed during the G1/S or S phase of the cell cycle) as described supra. The relative levels of the expression of specific proteins were analyzed by Western blot analyses of the cell lysates as described supra.

## CCOC(=O)C(C)=O [ethyl pyruvate]
[1]
  TGF-β1 induced expression of α-SMA (immunocytochemical): downregulated
[2]
  fibronectin deposition in the matrix (immunocytochemical): concentration dependent downregulation
[3]; day 1 post-wounding
  inflammatory cells (CD-45+) by FACS: 28.50±12.02
[3]; day 2 post-wounding
  inflammatory cells (CD-45+) by FACS: 163.00±57.42
[4]
  neutrophils (GR-1) by FACS: 61.00±42.53
[5]
  Ki67 positive cells (staining, qualitative): only a few Ki67 positive cells
